# Reference: article PMC7938888, “Antidepressant drugs act by directly binding to TRKB neurotrophin receptors” (Cell, 2021)
# “Also recorded” adds a separate entry of the source.
# Key:
# TRKB = TRKB (Mus musculus, UniProt P15209); test: Cell-free ligand binding assay on immobilised TRKB from HEK293T lysates; set-up: wild-type GFP-tagged full length TRKB or the GFP-tagged Y433F TRKB mutant; host or cells: HEK293T; details: for displacement of biotinylated FLX from TRKB: biotinylated FLX 1 μM
# Procedure: (§1) The cell-free assays (binding assays) were performed in white 96-well plates, based on the protocol used for western-blotting or ELISA ([Baeza-Raja et al., 2016]; [Das et al., 2015]). The plates were precoated with anti-GFP, anti-FLAG, anti-TRK or anti-TRKB antibody (1:1000) in carbonate buffer (pH 9.8), ON at 4°C. Following blocking with 3% BSA in PBS buffer (2 h at RT), 120 ug of total protein from each sample (of lysates from HEK293T cells transfected to overexpress GFP-TRKB.wt or GFP-TRKB.Y433F) were added and incubated overnight at 4°C under agitation. […] The luminescence was determined via HRP-conjugated streptavidin (1:10000, 1h, RT) activity reaction with ECL by a plate reader. The luminescence signal from blank wells (containing all the reagents but the sample lystates, substituted by the blocking buffer) was used as background. The specific signal was then calculated by subtracting the values of blank wells from the values of the samples with matched concentration of the biotinylated ligand. For Figure 2E, the precipitated TRKB.wt or Y433F was incubated with tritiated imipramine (0-30μM) and the radioactive emission of the ligand was determined by scintillation (OptiPhase Supermix cocktail: #1200-439; MicroBeta2, Perkin-Elmer). The scintillation signal from blank wells was used as background, and the specific signal was then calculated by subtracting the values of blank wells from the values of the samples with matched concentration of the radioactive ligand.
# TRKB.Y433F = target: T1, TRKB.Y433F (Mus musculus, UniProt P15209, Y433F); test: Cell-free ligand binding assay, TRKB.Y433F mutant; details: tritiated imipramine, biotinylated R,R-HNK
# T1 construct: wild-type GFP-tagged full length TRKB or the GFP-tagged Y433F TRKB mutant; host or cells: HEK293T
# T1 sequence (P15209 32-821 Y433F): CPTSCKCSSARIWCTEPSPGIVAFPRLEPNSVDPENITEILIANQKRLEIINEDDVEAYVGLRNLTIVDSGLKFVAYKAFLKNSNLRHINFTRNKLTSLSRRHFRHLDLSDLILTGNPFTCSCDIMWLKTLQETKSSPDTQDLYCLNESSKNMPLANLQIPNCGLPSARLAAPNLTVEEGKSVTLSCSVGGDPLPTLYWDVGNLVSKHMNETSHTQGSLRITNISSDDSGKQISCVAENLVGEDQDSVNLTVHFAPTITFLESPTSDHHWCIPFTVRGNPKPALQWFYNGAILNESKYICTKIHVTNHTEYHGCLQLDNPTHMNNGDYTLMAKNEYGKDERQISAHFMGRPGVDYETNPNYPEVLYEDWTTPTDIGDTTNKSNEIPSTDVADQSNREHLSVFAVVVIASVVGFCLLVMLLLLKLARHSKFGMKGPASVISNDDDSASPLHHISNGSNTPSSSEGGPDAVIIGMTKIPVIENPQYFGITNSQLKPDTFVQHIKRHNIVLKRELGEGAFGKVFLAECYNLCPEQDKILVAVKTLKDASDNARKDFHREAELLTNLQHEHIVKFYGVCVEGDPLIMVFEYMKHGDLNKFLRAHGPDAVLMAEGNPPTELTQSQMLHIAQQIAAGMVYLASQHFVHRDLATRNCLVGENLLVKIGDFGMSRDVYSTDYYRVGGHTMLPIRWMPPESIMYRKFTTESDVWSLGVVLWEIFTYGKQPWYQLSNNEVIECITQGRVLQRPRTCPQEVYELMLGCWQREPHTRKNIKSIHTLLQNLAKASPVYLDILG
# Procedure: as §1
# TRKB:PLC-γ1 interaction [1] = test: TRKB:PLC-γ1 interaction ELISA in cortical cells; type: cell-based, rat
# Procedure: (§2) The TRKB:pY (phosphorylated TRKB), TRKB:PLC-γ1, PLC-γ1:pTRKB.Y816 interactions and were determined by ELISA, based on the general method described in literature ([Antila et al., 2014]; [Fred et al., 2019]), with minor adjustments. Briefly, white 96-well plates (OptiPlate 96F-HB, Perkin Elmer) were coated with capturing anti-TRKB or PLC-γ1 antibody (1:1000) in carbonate buffer (pH = 9.8) overnight (ON) at 4°C. Following a blocking step with 2%BSA in TBS-T (2 h, RT), samples were incubated ON at 4°C. The incubation with antibody against pTRKB.Y816, PLC-γ1 or pY (1:2000, ON, 4°C) was followed by HRP-conjugated anti-Rb IgG (1:5000, 2h, RT) or HRP-conjugated streptavidin (1:10000, 2h, RT). Finally, the chemiluminescent signal generated by the reaction with ECL was analyzed in a plate reader (Varioskan Flash, Thermo Scientific).
# [2] = tested on: TRKB autophosphorylation (TRKB:pY); test: TRKB:pY ELISA in cultured cortical cells; type: cell-based, rat; details: for rescue of BDNF-induced pTRKB response under high CHOL: cholesterol 50 μM, drug 10 μM 15 min, BDNF 10 ng/ml 15 min
# Procedure: as §2
# [3] = target: GFP-tagged TRKB wild type (GFP-TRKB.wt), neurotrophic tyrosine kinase receptor 2 (UniProt P15209); test: ELISA; cell-free ligand binding assay in white 96-well plates: GFP-TRKB from 120 ug HEK293T lysate captured on antibody-coated wells (anti-GFP or anti-TRKB), washed, ligand added; read-out by HRP-streptavidin and ECL as told for biotinylated ligands; the conditions for BDNF are not told
# Chain of GFP-tagged TRKB wild type (GFP-TRKB.wt), neurotrophic tyrosine kinase receptor 2 (P15209 32-821): as the sequence (P15209 32-821 Y433F) above, with F402Y counted along it
# [4] = target: GFP-tagged TRKB mutated at Y433 (GFP-TRKB.Y433F) (UniProt P15209); test: as above
# Chain of GFP-tagged TRKB mutated at Y433 (GFP-TRKB.Y433F) (P15209 32-821 Y433F): as the sequence (P15209 32-821 Y433F) above
# [5] = tested on: GluR1 subunit of AMPA receptors; test: Surface GluR1 ELISA in rat cortical cells; type: cell-based; details: TRKB inhibitors
# Procedure: Briefly, the MG87.TRKB cells or primary cortical cells from rat or mouse embryos, cultivated in clear bottom 96-well plates (ViewPlate 96, Perkin Elmer), were washed with ice-cold PBS and fixed with 100μl of 4% PFA per well. […] Following washing, the samples were incubated with HRP-conjugated anti-goat or anti-rabbit IgG (1:5000 in blocking buffer) for 1h at RT. The cells were washed 4x with 200μl of PBS for 10 min each. Finally, the chemiluminescent signal generated by reaction with ECL was analyzed in a plate reader.
# TRKB:PLC-γ1 interaction [6] = test: TRKB:PLC-γ1 interaction ELISA in MG87 cells expressing TRKB; type: cell-based, mouse; details: bCDX 2 mM/30 min pre-treatment
# Procedure: The cell line NIH 3T3 (mouse fibroblasts) stably transfected to express TRKB or TRKA (MG87.TRKB or MG87.TRKA, respectively) were used for in vitro assays ([Antila et al., 2014]), N2A and HEK293T cells were used to overexpress GFP-tagged TRKB for binding assays. The cells were maintained at 5% CO2, 37°C in Dulbecco’s Modified Eagle’s Medium (DMEM, containing 10% fetal calf serum, 1% penicillin/streptomycin, 1% L-glutamine, and, in the case of MG87.TRKB cells, with […] of G418). The cell lines used in the present study were not authenticated or genotyped for sex.
# as §2, with “The incubation with antibody against pTRKB.Y816, PLC-γ1 or pY (1:2000, ON, 4°C) was followed by HRP-conjugated anti-Rb IgG (1:5000, 2h, RT) or HRP-conjugated streptavidin (1:10000, 2h, RT).” left out
# surface TRKB = test: Surface TRKB ELISA in primary cortical neurons; type: cell-based, rat
# Procedure: The surface levels of TRKB were also determined by ELISA ([Zheng et al., 2008]). Briefly, the MG87.TRKB cells or primary cortical cells from rat or mouse embryos, cultivated in clear bottom 96-well plates (ViewPlate 96, Perkin Elmer), were washed with ice-cold PBS and fixed with 100μl of 4% PFA per well. After washing with PBS and blocking with PBS containing 5% nonfat dry milk and 5% BSA, the samples were incubated with primary anti-TRKB antibody (R&D Systems, #AF1494, 1:1000 in blocking buffer) or anti-GluR1 subunit of AMPA receptors (CST, #8850, 1:2000 in blocking buffer) ON at 4°C. Following washing, the samples were incubated with HRP-conjugated anti-goat or anti-rabbit IgG (1:5000 in blocking buffer) for 1h at RT. The cells were washed 4x with 200μl of PBS for 10 min each. Finally, the chemiluminescent signal generated by reaction with ECL was analyzed in a plate reader.
# Chain of TRKB (P15209 32-821): as the sequence (P15209 32-821 Y433F) above, with F402Y counted along it
compound,measurement,setting,value
CN(C)CCCN1c2ccccc2CCc2ccccc21 [imipramine],Ki,TRKB,1030 nM
same,affinity to TRKB.Y433F compared with wild-type TRKB,TRKB.Y433F,much lower than to the wild-type TRKB
same,TRKB interaction with PLC-γ1,TRKB:PLC-γ1 interaction [1]; rat cortical cells,increased TRKB interaction with PLC-γ1
COc1ccc(C(CN(C)C)C2(O)CCCCC2)cc1 (stereo not drawn) [venlafaxine],Ki,TRKB,2080 nM
same,displacement of biotinylated FLX from TRKB,TRKB,readily displaced
O=c1[nH]c2ccccc2n1C1CCN(CCCC(c2ccc(F)cc2)c2ccc(F)cc2)CC1 [pimozide],rescue of BDNF-induced pTRKB response under high CHOL,[2],failed to rescue
O=C(NCCN1CCOCC1)c1ccc(Cl)cc1 [moclobemide],Ki,TRKB,1510 nM
"brain-derived neurotrophic factor (BDNF), biotinylated rh-BDNF (ligand)",Kd,[3],0.0031 nM
same,Kd,[4],0.0029 nM
COC(=O)[C@@]1(O)C[C@H]2O[C@]1(C)n1c3ccccc3c3c4c(c5c6ccccc6n2c5c31)C(=O)NC4 [k252a],"effect on FLX- and R,R-HNK-induced increase in surface GluR1",[5],prevented
OCCN1CCN(CCC=C2c3ccccc3Sc3ccc(C(F)(F)F)cc32)CC1 [flupenthixol],rescue of BDNF-induced pTRKB response under high CHOL,[2],failed to rescue
CN(C)CCOC(c1ccccc1)c1ccccc1 [diphenhydramine],displacement of biotinylated FLX from TRKB,TRKB,"weak, if any, displacement"
"N[C@]1(c2ccccc2Cl)CCC[C@H](O)C1=O [S,S-HNK, 2S,6S-HNK]",displacement of biotinylated FLX from TRKB,TRKB,"weak, if any, displacement"
same,"displacement of bound R,R-HNK from TRKB","TRKB; biotinylated R,R-HNK 1 μM",failed to displace
"CN[C@]1(c2ccccc2Cl)CCCCC1=O [esketamine, S-ketamine]",Ki,TRKB,2860 nM
CN(C)CCCN1c2ccccc2Sc2ccc(Cl)cc21 [chlorpromazine],displacement of biotinylated FLX from TRKB,TRKB,"weak, if any, displacement; also recorded: failed to displace"
same,rescue of BDNF-induced pTRKB response under high CHOL,[2],failed to rescue
CC(C)NCC(O)c1ccc(O)c(O)c1 (stereo not drawn) [isoproterenol],displacement of biotinylated FLX from TRKB,TRKB,"weak, if any, displacement"
"OC[C@H]1O[C@@H]2O[C@H]3[C@H](O)[C@@H](O)[C@@H](O[C@H]4[C@H](O)[C@@H](O)[C@@H](O[C@H]5[C@H](O)[C@@H](O)[C@@H](O[C@H]6[C@H](O)[C@@H](O)[C@@H](O[C@H]7[C@H](O)[C@@H](O)[C@@H](O[C@H]8[C@H](O)[C@@H](O)[C@@H](O[C@H]1[C@H](O)[C@H]2O)O[C@@H]8CO)O[C@@H]7CO)O[C@@H]6CO)O[C@@H]5CO)O[C@@H]4CO)O[C@@H]3CO [βCDX, beta-cyclodextrin]",blockade of CHOL effect on TRKB:PLC-γ1 interaction,TRKB:PLC-γ1 interaction [6],blocked
same,effect on BDNF-induced increase in TRKB-PLC-γ1 interaction,"TRKB:PLC-γ1 interaction [1]; bCDX 2 mM, 30 min",prevents
same,effect on antidepressant-induced TRKB:PLC-γ1 interaction,"TRKB:PLC-γ1 interaction [1]; bCDX 2 mM/30 min pretreatment, FLX, imipramine, KET, R,R-HNK",blocked
same,effect on block of BDNF-induced pTRKB by high cholesterol,"[2]; bCDX 30 min, cholesterol 100 μM/15 min, BDNF 10 ng/ml/15 min",reverses the block
same,effect on fluoxetine-induced increase in TRKB surface exposure,surface TRKB,blocked
O=C(Nc1ccccc1C(=O)NC1CCCCNC1=O)c1cc2ccccc2s1 (stereo not drawn) [ANA12],"effect on FLX- and R,R-HNK-induced increase in surface GluR1",[5],prevented
